This note sets out measurements from PubChem BioAssay (NCI).

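Exposure lasted 48 hours, with cells grown in 96-well plates and compounds tested at five concentrations. The concentration for 50% growth inhibition is given as GI50. Definition used: TGI = concentration required for complete inhibition of growth.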

Common to all, as to assay: inhibition of tumour cell growth, NCI panel, 48 h
Experiment [1] relates to ACHN renal.
Experiment [2] relates to HCT-15 colon.
The subject of experiment [3] is IGROV1 ovarian.
Experiment [4] relates to KM12 colon.
For experiment [5], the system named is SF-295 CNS.
Experiment [6] concerns SF-539 CNS.
The test system of experiment [7] is SNB-75 CNS.
Experiment [8] has as its system SW-620 colon.
The subject of experiment [9] is U251 CNS.
Experiment [10] deals with UACC-257 melanoma.

In the case of `COc1ccc(CC2c3cc4c(cc3CCN2C)OCO4)c(C=O)c1OC` (stereo not given), the TGI in [1], in experiment [2], in experiment [3], in [4], in [5] and in experiment [6] was > 100 µM in each case. For the same molecule, the TGI in experiment [7], in experiment [8], in experiment [9] and in experiment [10] was > 100 µM throughout.
Turning to `CCOC1Oc2ccccc2C(=O)/C1=C/Nc1ccc(C(C)=O)cc1` (stereo not given), the GI50 in experiment [1] was 18.6 µM; in [2], 17.4 µM; in experiment [3], 19.5 µM; in experiment [4], 19.1 µM; in [5], 23.9 µM; in experiment [6], 23.9 µM. Moreover, the GI50 in experiment [7] is 40.6 µM; in experiment [8], 26.7 µM; in experiment [9], 23.9 µM; in [10], 19.7 µM. Further, the TGI in experiment [1] was 44 µM; in experiment [2] it was 46.3 µM; in experiment [3], > 100 µM; in [4], 50.2 µM; in experiment [5] it was 62.3 µM; in [6] it was 56.6 µM. Also, the TGI in experiment [7] is > 100 µM; in experiment [8], 72.6 µM; in experiment [9], 67.5 µM; in experiment [10], 46.9 µM.
`CN(C)c1ccc(/C=C\C2=[N+](C)c3ccccc3C2(C)C)cc1`: the GI50 in [1] was 1.75 µM; in [2], 4.18 µM; in [3], 0.458 µM; in experiment [4], 0.369 µM; in [5], 0.994 µM; in [6], 1.12 µM. Also, the GI50 was 0.709 µM in experiment [7], 0.399 µM in experiment [8], 0.233 µM in [9] and 1.5 µM in experiment [10]. Besides, the TGI in [1] was > 36.7 µM; in experiment [2] it was > 69.7 µM; in experiment [3], > 50.1 µM; in experiment [4], 4.46 µM; in experiment [5], > 23.6 µM; in experiment [6], 16.7 µM. For the same molecule, the TGI in [7] was 19.9 µM; in experiment [8], 19.1 µM; in [9], 17.4 µM; in experiment [10] it was > 31.2 µM.
For `O=C(Nc1ccc(F)cc1)Nc1ccc(Cl)c([N+](=O)[O-])c1`, the GI50 in [1] is 2.96 µM; in experiment [2] it was 2.92 µM; in experiment [3] it was 4.77 µM; in [4], 3.3 µM; in experiment [5], 2.27 µM; in experiment [6] it was 3.86 µM. Besides, the GI50 was 5.93 µM in experiment [7], 3.45 µM in experiment [8], 3.19 µM in experiment [9] and 2.73 µM in [10]. Also, the TGI in experiment [1] worked out at 11 µM; in experiment [2], 12.1 µM; in experiment [3], 18.6 µM; in experiment [4], 13.8 µM; in [5], 7.93 µM; in [6] it was 14.3 µM. Also, the TGI was > 100 µM in experiment [7], 13.9 µM in [8], 12.5 µM in experiment [9] and 8.85 µM in [10].
For the molecule `CN(C)N=Nc1ccc(C(N)=O)cc1`, the TGI in experiment [1], in [2], in experiment [3], in experiment [4], in [5] and in [6] was > 100 µM each time. Further, the TGI in [7], in experiment [8], in experiment [9] and in [10] was > 100 µM throughout.
`Nc1ccccc1C#C/C=C\C#Cc1ccccc1OC(F)(F)F`: the GI50 in experiment [1] is 9.15 µM; in experiment [2] it was 4 µM; in experiment [3] it was 5.64 µM; in [4], 4.78 µM; in [5], 3.03 µM; in [6], 3.5 µM. In addition, the GI50 in experiment [7] was 2.47 µM; in experiment [8], 3.96 µM; in [9], 5.44 µM; in [10], 12 µM. The TGI was 50.4 µM in experiment [1]; 20 µM in experiment [2]; 39.9 µM in [3]; 27.3 µM in experiment [4]; 11.4 µM in [5]; 13.3 µM in experiment [6]. The TGI in experiment [7] came out at 7.85 µM; in [8] it was 16 µM; in [9], 22.2 µM; in experiment [10], 50.7 µM.
Turning to `CNS(=O)(=O)NNS(=O)(=O)c1ccccc1`, the TGI in experiment [1], in [2], in experiment [3], in experiment [4], in [5] and in [6] was > 100 µM throughout. For the same molecule, the TGI in experiment [7], in experiment [8], in [9] and in [10] was > 100 µM each time.
For `COC(=O)/C(C#N)=C1\NC(=O)c2ccccc21`, the TGI in [1], in experiment [2], in experiment [3], in [4], in [5] and in experiment [6] was > 100 µM in each case. Besides, the TGI in experiment [7] is 76.9 µM; in experiment [8] it was > 100 µM; in [9], > 100 µM; in experiment [10] it was > 100 µM.
Turning to `COc1cc2ccnc([C@@H](OC(=O)c3ccccc3)c3ccc(OC)c(OC)c3OC)c2cc1OC`, the TGI in experiment [1], in experiment [2], in experiment [3], in [4], in experiment [5] and in experiment [6] was > 100 µM in each case. The TGI in [7], in experiment [8], in experiment [9] and in experiment [10] was > 100 µM each time.
In the case of `CCn1c(C)nn2c(=O)c3ccccc3nc2c1=O`, the TGI in experiment [1], in [2], in [3], in experiment [4], in [5] and in experiment [6] was > 100 µM in each case. Moreover, the TGI in [7], in [8], in experiment [9] and in experiment [10] was > 100 µM throughout.
